# Read-outs that look alike come from different tables or passages of the source.
# What was measured:
# [1] = system: C. albicans ATCC 24433; test: Antifungal susceptibility, broth dilution MIC (CLSI M27-A2); type: cell-based; conditions: Candida albicans, read-out: Activity against organisms (MIC50) Ca01
# Protocol: (§1) The compounds of Formula 1 were tested for antifungal activity against Candida albicans, C. glabrata, C. krusei, C. tropicalis, Cryptococcus neoformans, Aspergillus fumigatus, A. niger and Fusarium proliferatum. In vitro evaluation of antifungal activity was performed by determining the minimum inhibitory concentration (MIC) following standard methods (CLSI: Reference method for broth dilution antifungal susceptibility testing of yeasts; Approved standard, second edition M27-A2, 2002; CLSI: Reference method for broth dilution antifungal susceptibility testing of filamentous fungi; Approved standard M38-A, 2002). Anti-fungal susceptibility testing of these anti-fungal compounds was done by broth dilution method using RPMI 1640 medium with MOPS buffer. Known anti-fungal agent fluconazole was used as positive control. End points were determined after 48 hours visually and by using spectrophotometer wherever necessary. Different dilutions were tried and various sets of experiments performed. The activity parameters are enumerated in Table 4.
# [2] = system: C. neoformans ATCC 34664; test: as above; type: cell-based, Cryptococcus neoformans; conditions: for MIC50: Cryptococcus neoformans, read-out: Activity against organisms (MIC50) Cn01
# Protocol: as §1
# [3] = system: C. krusei ATCC 6258; test: as above; type: cell-based, Candida krusei; conditions: Pichia kudriavzevii, read-out: Activity against organisms (MIC50) Ck01
# Protocol: as §1
# [4] = system: C. tropicalis ATCC 750; test: as above; type: cell-based, Candida tropicalis; conditions: for MIC50: Candida tropicalis, read-out: Activity against organisms (MIC50) Ct01
# Protocol: as §1
# [5] = system: C. glabrata ATCC 90030; test: as above; type: cell-based, Candida glabrata; conditions: Nakaseomyces glabratus, read-out: Activity against organisms (MIC50) Cg01
# Protocol: as §1
# [6] = system: A. fumigatus ATCC 46645; test: Antifungal susceptibility, broth dilution MIC (CLSI M38-A); type: cell-based; conditions: Aspergillus fumigatus, read-out: Activity against organisms (MIC50) Afm01
# Protocol: as §1
# [7] = system: F. proliferatum ATCC 10052; test: as above; type: cell-based; conditions: Fusarium proliferatum, read-out: Activity against organisms (MIC50) Fp01
# Protocol: as §1
# [8] = system: A. niger ATCC 16404; test: as above; type: cell-based; conditions: Aspergillus niger, read-out: Activity against organisms (MIC50) An01
# Protocol: as §1
# [9] = ATCC24433, C. albicans ATCC 24433, broth dilution, RPMI 1640 with MOPS, 48 hours
# [10] = ATCC34664, C. neoformans ATCC 34664, broth dilution, RPMI 1640 with MOPS, 48 hours
# [11] = ATCC6258, C. krusei ATCC 6258, broth dilution, RPMI 1640 with MOPS, 48 hours
# [12] = ATCC750, C. tropicalis ATCC 750, broth dilution, RPMI 1640 with MOPS, 48 hours
# [13] = ATCC90030, C. glabrata ATCC 90030, broth dilution, RPMI 1640 with MOPS, 48 hours
# [14] = ATCC46645, A. fumigatus ATCC 46645, broth dilution, RPMI 1640 with MOPS, 48 hours
# [15] = ATCC10052, F. proliferatum ATCC 10052, broth dilution, RPMI 1640 with MOPS, 48 hours
# [16] = ATCC16404, A. niger ATCC 16404, broth dilution, RPMI 1640 with MOPS, 48 hours
SMILES,"MIC50 [1, 9] [µg/mL]","MIC50 [2, 10] [µg/mL]","MIC50 [3, 11] [µg/mL]","MIC50 [4, 12] [µg/mL]","MIC50 [5, 13] [µg/mL]","MIC50 [6, 14] [µg/mL]","MIC50 [7, 15] [µg/mL]","MIC50 [8, 16] [µg/mL]","MIC50 ([1]; ATCC24433, 48 h) [µg/mL]","MIC50 ([2]; ATCC34664, 48 h) [µg/mL]","MIC50 ([3]; ATCC6258, 48 h) [µg/mL]","MIC50 ([4]; ATCC750, 48 h) [µg/mL]","MIC50 ([5]; ATCC90030, 48 h) [µg/mL]","MIC50 ([6]; ATCC46645, 48 h) [µg/mL]","MIC50 ([7]; ATCC10052, 48 h) [µg/mL]","MIC50 ([8]; ATCC16404, 48 h) [µg/mL]",antifungal activity against Cryptococcus neoformans (in words) ([2]; summary statement),antifungal activity against Candida tropicalis (in words) ([4]; summary statement)
"Cc1ccc(OCc2cn(CC(O)(Cn3cncn3)c3ccc(F)cc3F)nn2)cc1 (stereo not shown) [Compound 1D-5, 2-(2,4-Difluorophenyl)-1-(4-(4-methylphenyloxy)methyl-1H-1,2,3-triazol-1-yl)-3-(1H-1,2,4-triazol-1-yl)propan-2-ol]",0.12,2,8,0.5,0.03,64,> 128,64,,,,,,,,,,
"Cc1cc(C#N)c(N)c(C#N)c1-c1ccc(OCc2cn(CC(O)(Cn3cncn3)c3ccc(F)cc3F)nn2)cc1 (stereo not shown) [Compound 1D-6, 3-Amino-4′-((1-(2-(2,4-difluorophenyl)-2-hydroxy-3-(1H-1,2,4-triazol-1-yl)propyl)-1H-1,2,3-triazol-4-yl)methoxy)-6-methylbiphenyl-2,4-dicarbonitrile]",0.5,1,> 8,2,0.5,> 8,> 8,> 8,,,,,,,,,,
"C#CCOc1ccc(/C=C/C(=O)c2ccc(N3CCN(CCC)CC3)cc2)cc1 [Compound 6A-1, (E)-3-(4-(Prop-2-yn-1-yloxy)phenyl)-1-(4-(4-propylpiperazin-1-yl)phenyl)prop-2-en-1-one]",> 4,> 4,> 4,> 4,> 4,> 4,> 4,> 4,,,,,,,,,,
C#CCOc1ccc(/C=C/C(=O)c2ccc(N3CCN(CCCC)CC3)cc2)cc1 [Compound 6A-2],> 4,> 4,> 4,> 4,> 4,> 4,> 4,> 4,,,,,,,,,,
C#CCOc1ccc(/C=C/C(=O)c2ccc(N3CCN(Cc4ccc(OC)cc4)CC3)cc2)cc1 [Compound 6A-4],> 8,> 8,> 8,> 8,> 8,> 8,> 8,> 8,,,,,,,,,,
"OCc1cn(CC(O)(Cn2cncn2)c2ccc(F)cc2F)nn1 (stereo not shown) [Compound 8A-1, 2-(2,4-Difluorophenyl)-1-(4-(hydroxymethyl)-1H-1,2,3-triazol-1-yl)-3-(1H-1,2,4-triazol-1-yl)propan-2-ol]",32,> 128,> 128,> 128,2,> 128,> 128,> 128,,,,,,,,,,
COc1ccc(/C=C/C(=O)c2ccc(OC)cc2)cc1 [Compound 9A-1],> 4,> 4,> 4,> 4,> 4,> 4,> 4,> 4,,,,,,,,,,
COc1ccc(/C=C/C(=O)c2ccc(O)cc2)cc1 [Compound 9A-2],> 32,> 32,> 32,> 32,> 32,> 32,> 32,> 32,,,,,,,,,,
COc1ccc(C(=O)/C=C/c2ccc(Cl)cc2)cc1 [Compound 9A-3],> 4,> 4,> 4,> 4,> 4,> 4,> 4,> 4,,,,,,,,,,
O=C(/C=C/c1ccc(Cl)cc1)c1ccc(O)cc1 [Compound 9A-4],,,,,,,,,> 8,> 8,> 8,> 8,32,> 8,> 8,> 8,,
O=C(/C=C/c1ccc(O)cc1)c1ccc(O)cc1 [Compound 9A-5],32,32,> 32,> 32,16,16,> 32,8,,,,,,,,,,
O=C(/C=C/c1cccs1)c1ccc(O)cc1 [Compound 10A-1],> 32,> 32,> 32,> 32,> 32,> 32,> 32,> 32,,,,,,,,,,
COc1ccc(C(=O)/C=C/c2cccs2)cc1 [Compound 10A-2],> 8,> 8,> 8,> 8,> 8,> 8,> 8,> 8,,,,,,,,,,
CCCN1CCN(c2ccc(C(C)=O)cc2)CC1 [Compound 11A-1],> 128,> 128,> 128,> 128,> 128,> 128,> 128,> 128,,,,,,,,,,
CCCCN1CCN(c2ccc(C(C)=O)cc2)CC1 [Compound 11A-2],> 64,> 64,> 64,> 64,> 64,> 64,> 64,> 64,,,,,,,,,,
"OC(Cn1cncn1)(Cn1cncn1)c1ccc(F)cc1F [Fluconazole, reference compound]",0.25,2,32,1,1,> 128,> 128,> 128,,,,,,,,,weaker antifungal activity,weaker antifungal activity

# From patent US9540350B2, “1-substituted, 4-(substituted phenoxymethyl)-1,2,3-triazole compounds with antifungal properties and methods for preparation thereof” (FDC LIMITED, priority 2013, dated 2017)
